Several values for one entry are separate records, joined by “and”; a condition that tells them apart may be missing. Equal entries are not always repeated.
Test system: 817829-284-R-J1-PDC multi-cell spheroid viability
Assay: Anticancer human tumor 817829-284-R-J1-PDC patient-derived colon adenocarcinoma cell line growth inhibition [PI3K]
Settings: for viability, T/C: stronger effect = lower value
In short: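 Spheroid viability read-out. Co-cultures contained the tumor line plus HUVEC and human MSCs. Each agent was paired with a PI3K inhibitor (inavolisib, alpelisib, duvelisib, copanlisib) across half-log dilutions starting at clinical Cmax, or at 10 microM when Cmax was unknown.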

[1] = curve of first compound, second compound 0.00316 µM
[2] = curve of first compound, second compound 0.01 µM
[3] = curve of first compound, second compound 0.0316 µM
[4] = curve of first compound, second compound 0.1 µM
[5] = curve of first compound, second compound 0.316 µM
[6] = curve of first compound, second compound 1 µM
[7] = second compound 0.00316 µM, first compound 0.0316 µM
[8] = second compound 0.00316 µM, first compound 0.1 µM
[9] = second compound 0.00316 µM, first compound 0.316 µM
[10] = second compound 0.00316 µM, first compound 1 µM
[11] = second compound 0.00316 µM, first compound 3.16 µM
[12] = second compound 0.00316 µM, first compound 10 µM
[13] = second compound 0.01 µM, first compound 0.0316 µM
[14] = second compound 0.01 µM, first compound 0.1 µM
[15] = second compound 0.01 µM, first compound 0.316 µM
[16] = second compound 0.01 µM, first compound 1 µM
[17] = second compound 0.01 µM, first compound 3.16 µM
[18] = second compound 0.01 µM, first compound 10 µM
[19] = second compound 0.0316 µM, first compound 0.0316 µM
[20] = second compound 0.0316 µM, first compound 0.1 µM
[21] = second compound 0.0316 µM, first compound 0.316 µM
[22] = second compound 0.0316 µM, first compound 1 µM
[23] = second compound 0.0316 µM, first compound 3.16 µM
[24] = second compound 0.0316 µM, first compound 10 µM
[25] = second compound 0.1 µM, first compound 0.0316 µM
[26] = second compound 0.1 µM, first compound 0.1 µM
[27] = second compound 0.1 µM, first compound 0.316 µM
[28] = second compound 0.1 µM, first compound 1 µM
[29] = second compound 0.1 µM, first compound 3.16 µM
[30] = second compound 0.1 µM, first compound 10 µM
[31] = second compound 0.316 µM, first compound 0.0316 µM
[32] = second compound 0.316 µM, first compound 0.1 µM
[33] = second compound 0.316 µM, first compound 0.316 µM
[34] = second compound 0.316 µM, first compound 1 µM
[35] = second compound 0.316 µM, first compound 3.16 µM
[36] = second compound 0.316 µM, first compound 10 µM
[37] = second compound 1 µM, first compound 0.0316 µM
[38] = second compound 1 µM, first compound 0.1 µM
[39] = second compound 1 µM, first compound 0.316 µM
[40] = second compound 1 µM, first compound 1 µM
[41] = second compound 1 µM, first compound 3.16 µM
[42] = second compound 1 µM, first compound 10 µM
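Also: spheroids exposed to agents for seven days before readout.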
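For viability, T/C in this document: percent of vehicle DMSO control viability which is 100%.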

C#Cc1c(F)ccc2cc(O)cc(-c3ncc4c(N5CC6CCC(C5)N6)nc(OCC56CCCN5CC(F)C6)nc4c3F)c12 (configuration not stated) + COc1c(OCCCN2CCOCC2)ccc2c3n(c(=NC(=O)c4cnc(N)nc4)nc12)CCN3
IC50 [1]: > 10 µM | IC50 [2]: > 10 µM | IC50 [3]: 7.45 µM | IC50 [4]: < 0.0316 µM | IC50 [5]: < 0.0316 µM | IC50 [6]: < 0.0316 µM | viability, T/C [7]: 64.9% | viability, T/C [8]: 82.5% | viability, T/C [9]: 83.7% | viability, T/C [10]: 71.8% | viability, T/C [11]: 77% | viability, T/C [12]: 70.2% | viability, T/C [13]: 86.2% | viability, T/C [14]: 84% | viability, T/C [15]: 62.9% | viability, T/C [16]: 61.8% | viability, T/C [17]: 69.6% | viability, T/C [18]: 51.1% | viability, T/C [19]: 73.8% | viability, T/C [20]: 41.5% | viability, T/C [21]: 53.7% | viability, T/C [22]: 50.4% | viability, T/C [23]: 74.8% | viability, T/C [24]: 37.2% | viability, T/C [25]: 28.6% | viability, T/C [26]: 40.5% | viability, T/C [27]: 37.6% | viability, T/C [28]: 21.4% | viability, T/C [29]: 37.8% | viability, T/C [30]: 30.8% | viability, T/C [31]: 17.4% | viability, T/C [32]: 26.3% | viability, T/C [33]: 22.2% | viability, T/C [34]: 14.9% | viability, T/C [35]: 18% | viability, T/C [36]: 12.4% | viability, T/C [37]: 8.66% | viability, T/C [38]: 9.22% | viability, T/C [39]: 8.61% | viability, T/C [40]: 8.24% | viability, T/C [41]: 5.56% | viability, T/C [42]: 6.03%

Cc1nc(NC(=O)N2CCCC2C(N)=O)sc1-c1ccnc(C(C)(C)C(F)(F)F)c1 (configuration not stated)
viability, T/C (compound 10 µM): 68.7% [middle of 6 runs] | IC50 (compound alone, run of 04/24/2023): > 10 µM

CC(Nc1ncnc2nc[nH]c12)c1cc2cccc(Cl)c2c(=O)n1-c1ccccc1 (configuration not stated)
viability, T/C (compound 0.0316 µM): 98.7% and 80.4% | viability, T/C (compound 0.1 µM): 78.1% and 107% | viability, T/C (compound 0.316 µM): 98.9% and 104% | viability, T/C (compound 1 µM): 89% and 74.1% | viability, T/C (compound 3.16 µM): 82.9% and 94.8% | viability, T/C (compound 10 µM): 66% and 70.4% | IC50 (compound alone, run of 04/25/2023): > 10 µM

CCCS(=O)(=O)Nc1ccc(F)c(C(=O)c2c[nH]c3ncc(-c4ccc(Cl)cc4)cc23)c1F
viability, T/C (compound 0.0316 µM): 91.8% and 75.6% and 87.7% | viability, T/C (compound 0.1 µM): 75.9% and 81.4% and 57.4% | viability, T/C (compound 0.316 µM): 82.7% and 65.9% and 44.2% | viability, T/C (compound 1 µM): 90% and 62.3% and 54.9% | viability, T/C (compound 3.16 µM): 68% and 89.2% and 50.6% | viability, T/C (compound 10 µM): 7.12% and 5.31% and 3% | IC50 (curve of compound): 4.45 µM and 4.78 µM and 1.42 µM

Cn1ncnc1[C@H]1c2n[nH]c(=O)c3cc(F)cc(c23)N[C@@H]1c1ccc(F)cc1
viability, T/C (compound 0.000316 µM): 113% and 70.3% | viability, T/C (compound 0.001 µM): 106% and 90.1% | viability, T/C (compound 0.00316 µM): 83.9% and 67% | viability, T/C (compound 0.01 µM): 75.3% | viability, T/C (compound 0.0316 µM): 55.6% and 55% | viability, T/C (compound 0.1 µM): 41.3% and 46.6% | IC50 (curve of compound): 0.0514 µM and 0.0628 µM

C#Cc1c(F)ccc2cc(O)cc(-c3ncc4c(N5CC6CCC(C5)N6)nc(OCC56CCCN5CC(F)C6)nc4c3F)c12 (configuration not stated) + CC(Nc1ccc2c(c1)OCCn1cc(N3C(=O)OCC3C(F)F)nc1-2)C(N)=O
IC50 [1]: 8.67 µM | IC50 [2]: 5.16 µM | IC50 [3]: > 10 µM | IC50 [4]: > 10 µM | IC50 [5]: 4.35 µM | IC50 [6]: < 0.0316 µM | viability, T/C [7]: 83.7% | viability, T/C [8]: 75.3% | viability, T/C [9]: 87.4% | viability, T/C [10]: 77.4% | viability, T/C [11]: 69.9% | viability, T/C [12]: 47.2% | viability, T/C [13]: 90% | viability, T/C [14]: 84.8% | viability, T/C [15]: 72.7% | viability, T/C [16]: 79.9% | viability, T/C [17]: 56.1% | viability, T/C [18]: 38.3% | viability, T/C [19]: 74.9% | viability, T/C [20]: 69.8% | viability, T/C [21]: 58.5% | viability, T/C [22]: 65.9% | viability, T/C [23]: 63.5% | viability, T/C [24]: 47.8% | viability, T/C [25]: 64.9% | viability, T/C [26]: 79.8% | viability, T/C [27]: 56.1% | viability, T/C [28]: 80.5% | viability, T/C [29]: 77.8% | viability, T/C [30]: 39% | viability, T/C [31]: 53.5% | viability, T/C [32]: 83.5% | viability, T/C [33]: 48.6% | viability, T/C [34]: 71.2% | viability, T/C [35]: 54.7% | viability, T/C [36]: 32.2% | viability, T/C [37]: 45.1% | viability, T/C [38]: 45.3% | viability, T/C [39]: 47.8% | viability, T/C [40]: 60.3% | viability, T/C [41]: 59.9% | viability, T/C [42]: 30.2%
